Data published in patent US11166922B2, “Method for treating hyperhidrosis with dexmecamylamine” (Atacama Therapeutics, Inc., priority 2014, dated 2021).

Legend:
[1] = human, in vivo, po; cited from earlier work
[2] = tested on: subjects with overactive bladder; assay type: in vivo, human
Description: Dexmecamylamine is a use-dependent potent inhibitor of the α3 nicotinic receptor subtype (e.g., α3β2 and α3β4). Such receptors are expressed in the urothelium and regulate bladder smooth muscle contraction. (Beckel et al., Expression of functional nicotinic acetylcholine receptors in rat urinary bladder epithelial cells, Am. J. Physiol. Renal Physiol. 290:F103-110, 2006). A clinical study was performed to evaluate the safety, tolerability, and efficacy of dexmecamylamine (TC-5214) for the treatment of Overactive Bladder (OAB). The study included a three- or five-week screening period, followed by a 12-week treatment period during which patients received either one of three doses of dexmecamylamine or placebo twice daily, randomized in a ratio of 2:1:1:1 (placebo, low dose, mid dose, high dose), with a two-week follow-up period. A total of 768 subjects with overactive bladder were randomized into the double-blind treatment period of the study. On Jul. 28, 2014, Targacept announced top-line results from the Phase 2b clinical trial of TC-5214 as a treatment for overactive bladder (OAB). […] See also, PCT Application No. […], which published as WO 2013/142162 A1.
As noted hereinabove, a clinical study was performed to evaluate the safety, tolerability, and efficacy of dexmecamylamine (TC-5214) for the treatment of Overactive Bladder (OAB). The study included a three- or five-week screening period, followed by a 12-week treatment period during which patients received either one of three doses of dexmecamylamine or placebo twice daily, randomized in a ratio of 2:1:1:1 (placebo, low dose, mid dose, high dose), with a two-week follow-up period. A total of 768 subjects with overactive bladder were randomized into the double-blind treatment period of the study. […] See also, PCT Application No. PCT/US2013/030640, which published as WO 2013/142162 A1.

[3] = tested on: Major Depressive Disorder (MDD) subjects; assay type: in vivo, human
Description: More recently, dexmecamylamine was evaluated as adjunctive therapy in the treatment of major depressive disorder (MDD) in a large international Phase 3 depression program. […] More than 2400 subjects have received dexmecamylamine in double-blind or open-label studies.
No safety studies using dexmecamylamine have been performed in OAB. Phase 2 and Phase 3 clinical studies using dexmecamylamine in Major Depressive Disorder (MDD) have been conducted and completed. […] Briefly, in the fixed dose Phase 3 studies in MDD, at doses of 2 mg BID (the maximum doses to be studied in the OAB study), the most frequent treatment emergent adverse events that were reported more than 2% more commonly in the dexmecamylamine group compared to placebo group were: constipation (15.2% dexmecamylamine vs. 3.8% placebo): and dry mouth (7.0% dexmecamylamine vs. 1.3% placebo).

[4] = Excretion of dexmecamylamine in urine; settings: in vivo
From the text: The exposure differential results in the ability of dexmecamylamine to target local nicotinic receptors in the urothelium that affect bladder contraction frequency while limiting systemic side effects. Consequently, the potential for dexmecamylamine to treat OAB through its action on nAChRs in the bladder urothelium warrants further investigation.

[5] = tested on: sympathetic activities; experiment: Dose-responses for inhibition of sympathetic activities at low and high firing frequency (FIG. 2); settings: 1 Hz versus 10 Hz firing frequency
Description: This is believed due, in part, to the fact that TC-5214 potency will increase with frequency due to its slow off-rate kinetics. See FIG. 2, which illustrates a 10-fold shift to the left with increasing frequency. The effective dose range, therefore, is believed to be between 0.1 and 1 mg; with a top dose at 2 mg once per day, since sympathetic activity decreases at night in primary hyperhidrosis. […] The potency of TC-5214 shifts to the left (red/triangle curve) thereby reducing sweating due to overactive sympathetic but remain too low to induce inhibition of the parasympathetic and associated side effects, including urinary retention and constipation.

[6] = pre-clinical; see U.S. Pat. No. 7,101,916; cited from earlier work

| Compound | absorption from the gastrointestinal tract [1] | micturition frequency per 24 hours (co-primary endpoint) ([2]; high dose, twice daily, after 12 weeks of treatment, p=0.033) | episodes of urinary incontinence per 24 hours (co-primary endpoint) ([2]; high dose, twice daily, after 12 weeks of treatment, p=0.379) | safety and tolerability ([2]; human, in vivo) | placebo corrected rate of constipation ([2]; human, in vivo, 12 weeks) [%] | rate of urinary tract infection (placebo corrected) ([2]; human, in vivo, 12 weeks) [%] | efficacy in the treatment of depression ([3]; adjunctive therapy, Phase 3 depression program) | safety and tolerability ([3]; human, in vivo) | vital signs, blood or urine laboratory measurements, ECG conduction intervals, suicidality ([3]; human, in vivo) | excretion in the urine [4] | shift of potency (dose-response to the left) with increasing frequency [5] [fold] | safety profile versus mecamylamine and its R-isomer [6] |
| --- | --- | --- | --- | --- | --- | --- | --- | --- | --- | --- | --- | --- |
| CNC1(C)C2CCC(C2)C1(C)C.Cl (racemic) [mecamylamine, N,2,3,3-tetramethylbicyclo[2.2.1]heptan-2-amine hydrochloride] | nearly complete absorption | – | – | – | – | – | – | – | – | – | – | – |
| CNC1(C)[C@H]2CCC(C2)C1(C)C (stereo in doubt) [TC-5214, (S)-N,2,3,3-tetramethylnorbornan-2-amine] | – | statistically significant reduction | improvement that did not reach statistical significance | generally safe and well tolerated | 15.1 | 5.9 | failed to demonstrate efficacy | generally safe and well-tolerated | no noteworthy differences | excreted almost entirely unchanged in the urine | 10 | superior safety profile |
